Results as given in publication PMC8776995 (Frontiers in Chemistry, 2022).
Several values for one entry are separate records, joined by “and”; a condition that tells them apart may be missing. Equal values may be shown once. Read-outs that look alike come from different tables or passages of the source.

Tests used:
H1975 cells = assay: CCK-8 antiproliferation assay, H1975; settings: for Inhibitory efficacy: H1975 cells
wild-type EGFR = wild-type EGFR (Homo sapiens, UniProt P00533); assay: EGFR kinase assay (ELISA); settings: for IC50: IC50 (μM) EGFR, ELISA, 3 μmol/L ATP; for A450: raw ELISA absorbance
Sequence of wild-type EGFR (P00533 25-1210): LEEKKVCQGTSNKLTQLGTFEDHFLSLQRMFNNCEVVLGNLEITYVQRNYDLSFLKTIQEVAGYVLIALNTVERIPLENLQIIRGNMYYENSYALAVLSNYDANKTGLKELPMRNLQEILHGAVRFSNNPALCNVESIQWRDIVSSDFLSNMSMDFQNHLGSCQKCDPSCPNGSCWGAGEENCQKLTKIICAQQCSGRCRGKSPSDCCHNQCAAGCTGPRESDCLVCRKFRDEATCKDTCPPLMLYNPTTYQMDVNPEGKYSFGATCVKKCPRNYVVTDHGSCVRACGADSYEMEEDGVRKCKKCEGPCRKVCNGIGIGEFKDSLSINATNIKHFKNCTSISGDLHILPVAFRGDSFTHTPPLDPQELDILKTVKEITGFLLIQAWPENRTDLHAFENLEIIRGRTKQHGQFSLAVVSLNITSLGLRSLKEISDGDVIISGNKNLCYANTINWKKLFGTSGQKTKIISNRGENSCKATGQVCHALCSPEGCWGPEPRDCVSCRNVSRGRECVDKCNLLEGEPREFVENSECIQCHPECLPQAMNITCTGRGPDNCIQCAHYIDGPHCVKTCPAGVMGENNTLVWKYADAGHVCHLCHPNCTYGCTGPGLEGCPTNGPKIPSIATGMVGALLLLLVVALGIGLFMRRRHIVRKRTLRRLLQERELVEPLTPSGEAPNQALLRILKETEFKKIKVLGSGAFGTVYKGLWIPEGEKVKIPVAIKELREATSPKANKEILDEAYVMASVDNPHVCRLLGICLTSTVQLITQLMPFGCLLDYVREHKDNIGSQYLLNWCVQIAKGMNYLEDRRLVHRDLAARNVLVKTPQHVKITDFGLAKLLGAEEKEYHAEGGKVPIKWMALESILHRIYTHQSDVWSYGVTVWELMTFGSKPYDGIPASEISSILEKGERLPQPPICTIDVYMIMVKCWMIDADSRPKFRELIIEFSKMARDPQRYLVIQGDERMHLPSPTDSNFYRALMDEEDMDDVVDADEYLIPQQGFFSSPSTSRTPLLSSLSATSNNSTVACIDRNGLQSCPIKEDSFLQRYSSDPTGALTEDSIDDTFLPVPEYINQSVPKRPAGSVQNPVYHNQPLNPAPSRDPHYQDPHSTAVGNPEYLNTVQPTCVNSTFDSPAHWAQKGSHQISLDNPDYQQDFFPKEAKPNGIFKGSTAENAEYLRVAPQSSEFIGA
Experimental: The kinase enzyme of EGFR was purchased from Carna Bioscience (Kobe, Japan). A total of 10 ng/ml anti phosphotyrosine (PY713) antibody (abcam, Cambridge Science Park, United Kingdom) was precoated in 96-well ELISA plates. […] Then, a total of 3 μmol/L ATP was added and the reaction was continued for 2 h. […] After incubation, the wells were washed with PBS and then incubated with horseradish peroxidase (HRP)-conjugated streptavidin. The wells were visualized using 3,3′,5,5′-tetramethylbenzidine (TMB), and chromogenic reaction was ended with 2 mol/L H2SO4, the absorbance was read with a multimode plate reader (PerkinElmer, United States) at 450 nm.

H460 cells = assay: CCK-8 antiproliferation assay, H460
A549 cells = assay: CCK-8 antiproliferation assay, A549; settings: for Inhibitory efficacy: A549 cells
PC-9 cells = assay: CCK-8 antiproliferation assay, PC-9; settings: for IC50: PC-9, 48 h, read-out: IC50 (μM) PC-9; for inhibition at 8 µM: PC-9, read-out: Inhibitory efficacy, PC-9, 8uM, single repeats (Repeat 1-3), given as fraction; for inhibition at 16 µM: PC-9, read-out: Inhibitory efficacy, PC-9, 16uM, single repeats (Repeat 1-3), given as fraction; for Inhibitory efficacy: single repeats (Repeat 1-3), given as fraction
[1] = Homo sapiens, NCI-H1975, 48 h, read-out: IC50 (μM) H1975, CCK-8, 48 h, average ± SD of three independent experiments
[2] = 1uM, given as fraction, Repeat 1-3
[3] = 2uM, given as fraction, Repeat 1-3
[4] = 4uM, given as fraction, Repeat 1-3
[5] = 16uM, given as fraction, Repeat 1-3
[6] = Homo sapiens, A549, read-out: Inhibitory efficacy, A549 cells, 1uM, given as fraction, Repeat 1-3
[7] = Homo sapiens, A549, read-out: Inhibitory efficacy, A549 cells, 2uM, given as fraction, Repeat 1-3
[8] = Homo sapiens, A549, read-out: Inhibitory efficacy, A549 cells, 4uM, given as fraction, Repeat 1-3
[9] = Homo sapiens, A549, read-out: Inhibitory efficacy, A549 cells, 16uM, given as fraction, Repeat 1-3
[10] = 8uM, given as fraction, Repeat 1-3

For `COCCOc1cc2ncnc(Nc3cccc(-c4cn(-c5ccc(OC)c(OC)c5)nn4)c3)c2cc1OCCOC` [e19, N-(3-(1-(3,4-dimethoxyphenyl)-1H-1,2,3-triazol-4-yl)phenyl)-6,7-bis(2-methoxyethoxy)quinazolin-4-amine], the melting point was 106 to 109 °C, the IC50 (H1975 cells; [1]) was > 100 µM and the IC50 (wild-type EGFR) was 28.1 µM. For the same molecule, the inhibition at 100 fM (wild-type EGFR; concentration 0.0001 nM (reference for normalisation), one value per replicate column) was 0%, the inhibition at 30 pM (wild-type EGFR; concentration 0.03 nM, one value per replicate column) was 0% and the inhibition at 0.0003 µM (wild-type EGFR; concentration 0.3 nM, one value per replicate column) was 1.06%. The Inhibition (wild-type EGFR; concentration 0.3 nM, one value per replicate column, 0.0003 µM) was 0.9259, the inhibition at 0.003 µM (wild-type EGFR; concentration 3 nM, one value per replicate column) was 2.12% and the Inhibition (wild-type EGFR; concentration 3 nM, one value per replicate column, 0.003 µM) was 3.333. The inhibition at 0.03 µM (wild-type EGFR; concentration 30 nM, one value per replicate column) was 6.35%, the Inhibition (wild-type EGFR; concentration 30 nM, one value per replicate column, 0.03 µM) was 7.222 and the inhibition at 0.3 µM (wild-type EGFR; concentration 300 nM, one value per replicate column) was 6.7%. For the same molecule, the Inhibition (wild-type EGFR; concentration 300 nM, one value per replicate column, 0.3 µM) was 10.3704, the inhibition at 3 µM (wild-type EGFR; concentration 3000 nM, one value per replicate column) was 8.29% and the Inhibition (wild-type EGFR; concentration 3000 nM, one value per replicate column, 3 µM) was 15.5556. The inhibition at 30 µM (wild-type EGFR; concentration 30000 nM, one value per replicate column) was 52.7%, the Inhibition (wild-type EGFR; concentration 30000 nM, one value per replicate column, 30 µM) was 51.6667 and the A450 (wild-type EGFR; concentration 0.0001 nM) was 0.772 and 0.745. The A450 (wild-type EGFR; concentration 0.03 nM) was 0.772 and 0.745, the A450 (wild-type EGFR; concentration 0.3 nM) was 0.766 and 0.74 and the A450 (wild-type EGFR; concentration 3 nM) was 0.76 and 0.727. For the same molecule, the A450 (wild-type EGFR; concentration 30 nM) was 0.736 and 0.706, the A450 (wild-type EGFR; concentration 300 nM) was 0.734 and 0.689 and the A450 (wild-type EGFR; concentration 3000 nM) was 0.725 and 0.661. For the same molecule, the A450 (wild-type EGFR; concentration 30000 nM) was 0.473 and 0.466, the Inhibitory efficacy (H460 cells; H460 cells, 2uM, given as fraction, Repeat 1-3) was 0.2578 and 0.3115 and the Inhibitory efficacy (H460 cells; H460 cells, 16uM, given as fraction, Repeat 1-3) was 0.424 and 0.3358. For the same molecule, the IC50 (H460 cells; Homo sapiens, NCI-H460, 48 h, read-out: IC50 (μM) H460, CCK-8, 48 h, average ± SD of three independent experiments) was > 100 µM, the inhibition at 2 µM (H460 cells; Homo sapiens, NCI-H460, read-out: Inhibitory efficacy, H460 cells, 2uM, given as fraction, Repeat 1-3) was 32.2% and the inhibition at 16 µM (H460 cells; Homo sapiens, NCI-H460, read-out: Inhibitory efficacy, H460 cells, 16uM, given as fraction, Repeat 1-3) was 33.1%. For the same molecule, the Inhibitory efficacy (A549 cells; [2]) was 0.1948 and 0.1677, the Inhibitory efficacy (A549 cells; [3]) was 0.2727 and 0.2237 and the Inhibitory efficacy (A549 cells; [4]) was 0.2792 and 0.2418. For the same molecule, the Inhibitory efficacy (A549 cells; [5]) was 0.2527 and 0.2605, the IC50 (A549 cells; Homo sapiens, A549, 48 h, read-out: IC50 (μM) A549, CCK-8, 48 h, average ± SD of three independent experiments) was > 100 µM and the inhibition at 1 µM (A549 cells; [6]) was 21.2%. The inhibition at 2 µM (A549 cells; [7]) was 23.7%, the inhibition at 4 µM (A549 cells; [8]) was 19.7% and the inhibition at 16 µM (A549 cells; [9]) was 26.2%. The IC50 (PC-9 cells; Homo sapiens) was 23.5 ± 10.2 µM, the inhibition at 1 µM (PC-9 cells; Homo sapiens, PC-9, read-out: Inhibitory efficacy, PC-9, 1uM, single repeats (Repeat 1-3), given as fraction) was 21.9% and the inhibition at 2 µM (PC-9 cells; Homo sapiens, PC-9, read-out: Inhibitory efficacy, PC-9, 2uM, single repeats (Repeat 1-3), given as fraction) was 32.9%. For the same molecule, the inhibition at 8 µM (PC-9 cells; Homo sapiens) was 35.7%, the inhibition at 16 µM (PC-9 cells; Homo sapiens) was 49.7% and the Inhibitory efficacy (PC-9 cells; PC-9, 1uM, 1 µM) was 0.1694 and 0.3158. The Inhibitory efficacy (PC-9 cells; PC-9, 2uM, 2 µM) was 0.2911 and 0.3553, the Inhibitory efficacy (PC-9 cells; PC-9, 4uM, 4 µM) was 0.4984 and 0.2516 and 0.3668 and the Inhibitory efficacy (PC-9 cells; PC-9, 8uM, 8 µM) was 0.4737 and 0.4424. For the same molecule, the Inhibitory efficacy (PC-9 cells; PC-9, 16uM, 16 µM) was 0.4062 and 0.4457.
With `COCCOc1cc2ncnc(Nc3cccc(-c4cn(-c5ccccc5Br)nn4)c3)c2cc1OCCOC` [e9, [6,7-Bis-(2-methoxy-ethoxy)-quinazolin-4-yl]-{3-[1-(2-bromo-phenyl)-1H-[1,2,3]triazol-4-yl]-phenyl}-amine] the melting point was 93 to 97 °C, the Inhibitory efficacy (H1975 cells; [2]) was 0.171 and 0.2074 and the Inhibitory efficacy (H1975 cells; [4]) was 0.4371 and 0.3791. The Inhibitory efficacy (H1975 cells; [10]) was 0.5337 and 0.5679, the Inhibitory efficacy (H1975 cells; [5]) was 0.6418 and 0.6475 and the IC50 (H1975 cells; [1]) was < 10 µM. For the same molecule, the inhibition at 1 µM (H1975 cells; Homo sapiens, NCI-H1975, read-out: Inhibitory efficacy, H1975 cells, 1uM, given as fraction, Repeat 1-3) was 15.5%, the inhibition at 4 µM (H1975 cells; Homo sapiens, NCI-H1975, read-out: Inhibitory efficacy, H1975 cells, 4uM, given as fraction, Repeat 1-3) was 37.6% and the inhibition at 8 µM (H1975 cells; Homo sapiens, NCI-H1975, read-out: Inhibitory efficacy, H1975 cells, 8uM, given as fraction, Repeat 1-3) was 58%. It also gave an inhibition at 16 µM (H1975 cells; Homo sapiens, NCI-H1975, read-out: Inhibitory efficacy, H1975 cells, 16uM, given as fraction, Repeat 1-3) of 66.8%, an IC50 (H1975 cells; read-out: IC50 (μM) H1975, CCK-8, 48 h, average ± SD of three independent experiments) of 6.86 ± 0.17 µM and an inhibition at 0.0003 µM (wild-type EGFR; 0.3 nM, duplicate wells, calculated from A450) of 0.816%. For the same molecule, the Inhibition (wild-type EGFR; 0.3 nM, duplicate wells, calculated from A450, 0.0003 µM) was 0.7055, the inhibition at 3 µM (wild-type EGFR; 3000 nM, duplicate wells, calculated from A450) was 41.4% and the Inhibition (wild-type EGFR; 3000 nM, duplicate wells, calculated from A450, 3 µM) was 44.4444. For the same molecule, the inhibition at 30 µM (wild-type EGFR; 30000 nM, duplicate wells, calculated from A450) was 89.8%, the Inhibition (wild-type EGFR; 30000 nM, duplicate wells, calculated from A450, 30 µM) was 89.9471 and the IC50 (wild-type EGFR) was 3.83 µM. The Inhibitory efficacy (H460 cells; H460, 2uM, single repeats (Repeat 1-3), given as fraction, 2 µM) was 0.3746 and 0.3508, the Inhibitory efficacy (H460 cells; H460, 4uM, single repeats (Repeat 1-3), given as fraction, 4 µM) was 0.6113 and 0.6209 and the Inhibitory efficacy (H460 cells; H460, 8uM, single repeats (Repeat 1-3), given as fraction, 8 µM) was 0.7678 and 0.7392. For the same molecule, the Inhibitory efficacy (H460 cells; H460, 16uM, single repeats (Repeat 1-3), given as fraction, 16 µM) was 0.7559 and 0.7615, the inhibition at 2 µM (H460 cells; Homo sapiens, NCI-H460, read-out: Inhibitory efficacy, H460, 2uM, single repeats (Repeat 1-3), given as fraction) was 40.3% and the inhibition at 4 µM (H460 cells; Homo sapiens, NCI-H460, read-out: Inhibitory efficacy, H460, 4uM, single repeats (Repeat 1-3), given as fraction) was 72.6%. For the same molecule, the inhibition at 8 µM (H460 cells; Homo sapiens, NCI-H460, read-out: Inhibitory efficacy, H460, 8uM, single repeats (Repeat 1-3), given as fraction) was 76.5%, the inhibition at 16 µM (H460 cells; Homo sapiens, NCI-H460, read-out: Inhibitory efficacy, H460, 16uM, single repeats (Repeat 1-3), given as fraction) was 77.3% and the Inhibitory efficacy (A549 cells; [2]) was 0.1197 and 0.1367. For the same molecule, the Inhibitory efficacy (A549 cells; [3]) was 0.3287 and 0.2555, the Inhibitory efficacy (A549 cells; [4]) was 0.8462 and 0.8405 and the Inhibitory efficacy (A549 cells; [10]) was 0.9628 and 0.9656. The Inhibitory efficacy (A549 cells; [5]) was 0.9642 and 0.9671, the inhibition at 1 µM (A549 cells; [6]) was 16% and the inhibition at 2 µM (A549 cells; [7]) was 26.7%. For the same molecule, the inhibition at 4 µM (A549 cells; [8]) was 82.8%, the inhibition at 8 µM (A549 cells; Homo sapiens, A549, read-out: Inhibitory efficacy, A549 cells, 8uM, given as fraction, Repeat 1-3) was 95.9% and the inhibition at 16 µM (A549 cells; [9]) was 96.6%. It also gave an IC50 (PC-9 cells; Homo sapiens) of 7.63 ± 1.69 µM, an inhibition at 4 µM (PC-9 cells; Homo sapiens, PC-9, read-out: Inhibitory efficacy, PC-9, 4uM, single repeats (Repeat 1-3), given as fraction) of 42.1% and an inhibition at 8 µM (PC-9 cells; Homo sapiens) of 57.9%. For the same molecule, the inhibition at 16 µM (PC-9 cells; Homo sapiens) was 54.2%, the Inhibitory efficacy (PC-9 cells; PC-9, 4uM, 4 µM) was 0.4231 and 0.428 and the Inhibitory efficacy (PC-9 cells; PC-9, 8uM, 8 µM) was 0.5458 and 0.6686. For the same molecule, the Inhibitory efficacy (PC-9 cells; PC-9, 16uM, 16 µM) was 0.5655 and 0.5078.
